Reference: patent US6030942A, “Peptides peptide analogs peptidomimetics and other small molecules useful for inhibiting the activity of ribonucleotide reductase” (The Trustees of the University of Pennsylvania, priority 1998, dated 2000)
“And” between values parts separate entries of the source, which are not always exact repeats. Equal entries are not always repeated. Where two headings read alike, the source gives them in different places. Ends that are not written are not given here.

Key:
[1] = molecular target: T1, mammalian ribonucleotide reductase (Bos taurus, UniProt Q32LP1); test: Peptide inhibition of mammalian ribonucleotide reductase activity; format: biochemical; conditions: for % RI (relative inhibitory potency, (IC50 AcFTLDADF)/(IC50 peptide analog)): mean and average deviation of 2-3 determinations, others single
T1 sequence (Q32LP1 1-791): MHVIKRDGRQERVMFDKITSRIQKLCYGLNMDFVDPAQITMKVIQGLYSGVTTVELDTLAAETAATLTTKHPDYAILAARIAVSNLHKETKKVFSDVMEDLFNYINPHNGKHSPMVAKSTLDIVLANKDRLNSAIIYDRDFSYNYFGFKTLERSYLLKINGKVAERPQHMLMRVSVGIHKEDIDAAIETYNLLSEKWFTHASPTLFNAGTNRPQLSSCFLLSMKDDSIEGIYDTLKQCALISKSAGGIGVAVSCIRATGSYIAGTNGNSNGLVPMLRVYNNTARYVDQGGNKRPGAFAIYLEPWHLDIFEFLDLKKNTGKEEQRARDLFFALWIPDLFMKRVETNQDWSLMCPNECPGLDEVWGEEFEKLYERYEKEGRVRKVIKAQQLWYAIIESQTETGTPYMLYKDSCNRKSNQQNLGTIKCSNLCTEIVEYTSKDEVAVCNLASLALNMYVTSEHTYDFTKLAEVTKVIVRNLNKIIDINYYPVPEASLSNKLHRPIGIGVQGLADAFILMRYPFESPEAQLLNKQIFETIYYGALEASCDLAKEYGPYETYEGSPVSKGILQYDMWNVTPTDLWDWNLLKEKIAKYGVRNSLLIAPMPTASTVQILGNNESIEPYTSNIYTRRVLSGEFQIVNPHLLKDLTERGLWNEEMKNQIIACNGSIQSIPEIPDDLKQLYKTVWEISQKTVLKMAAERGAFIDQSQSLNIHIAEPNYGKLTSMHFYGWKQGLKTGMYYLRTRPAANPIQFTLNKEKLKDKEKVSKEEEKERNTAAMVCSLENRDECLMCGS
Text: All three methods yielded acceptable results, with the following limitations. Method 1 is useful for the assay of CDP to dCDP and ADP to dADP conversions, but is not useful for the assay of GDP reduction. It is also sensitive to large changes in the nucleotide composition of the assay medium. […] Method 2 is the easiest to perform on purified enzymes, and can be used with all four NDPs as substrates, but is difficult to use with crude enzyme, largely because contaminating phosphatase activities can skew results. Method 3 is usable with all four NDPs, but is also somewhat sensitive to large changes in the nucleotide composition of the assay medium and requires column separation at 4° C.

RR = molecular target: T2, RR (Mus musculus, UniProt P07742); test: Inhibition of RR by Compound 23; format: biochemical
T2 sequence (P07742 1-792): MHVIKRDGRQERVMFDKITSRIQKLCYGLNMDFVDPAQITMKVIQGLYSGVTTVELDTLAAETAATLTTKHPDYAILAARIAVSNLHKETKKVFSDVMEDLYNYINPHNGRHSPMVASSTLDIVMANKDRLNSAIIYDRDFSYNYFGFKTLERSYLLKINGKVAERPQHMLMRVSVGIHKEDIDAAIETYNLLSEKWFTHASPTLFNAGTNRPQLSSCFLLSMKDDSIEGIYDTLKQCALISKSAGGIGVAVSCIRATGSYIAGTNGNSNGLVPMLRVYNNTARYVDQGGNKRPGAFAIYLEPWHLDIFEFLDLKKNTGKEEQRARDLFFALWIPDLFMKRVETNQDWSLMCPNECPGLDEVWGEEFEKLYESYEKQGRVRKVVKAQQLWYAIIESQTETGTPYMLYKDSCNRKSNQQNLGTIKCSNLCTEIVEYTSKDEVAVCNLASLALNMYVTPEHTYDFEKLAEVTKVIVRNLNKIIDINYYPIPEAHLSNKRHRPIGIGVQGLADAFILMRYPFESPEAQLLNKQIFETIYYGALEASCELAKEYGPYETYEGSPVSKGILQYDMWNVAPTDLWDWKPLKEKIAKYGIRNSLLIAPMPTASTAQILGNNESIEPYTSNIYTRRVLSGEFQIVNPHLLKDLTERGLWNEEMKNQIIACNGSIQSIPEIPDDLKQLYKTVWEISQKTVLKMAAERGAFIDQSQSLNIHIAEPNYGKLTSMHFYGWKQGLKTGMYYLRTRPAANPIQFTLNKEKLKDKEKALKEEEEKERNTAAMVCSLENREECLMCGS
Text: Standard assays of RR activity used in the studies presented herein involve the conversion of [^3 H]-ribonucleoside diphosphate (NDP) to [^3 H]-deoxyribonucleoside diphosphate (dNDP), using dithiothreitol as the external reductant. Three methods were examined: Method 1 (Steeper et al., 1970, Anal. Biochem. 34:123-130), involving the conversion of diphosphates to nucleosides by enzymatic digestion, followed by the separation of deoxynucleoside from nucleoside on Dowex-1-borate columns; Method 2 (Moore et al., 1974, Biochemistry 13:2904-2907), involving the direct separation of dNDP from NDP on aminophenylboronate columns; Method 3 (Sato et al., 1983, Anal. Biochem. 135:431-435) involving the conversion of diphosphates to nucleosides by enzymatic digestion, followed by the separation of deoxynucleoside from nucleoside on polyethyleneimine-cellulose columns.
All three methods yielded acceptable results, with the following limitations. Method 1 is useful for the assay of CDP to dCDP and ADP to dADP conversions, but is not useful for the assay of GDP reduction. It is also sensitive to large changes in the nucleotide composition of the assay medium. Thus, it is quite useful for standard assays (purifications, tests of peptide inhibition), but difficult to apply when concentrations and substrate are widely varied. Method 2 is the easiest to perform on purified enzymes, and can be used with all four NDPs as substrates, but is difficult to use with crude enzyme, largely because contaminating phosphatase activities can skew results. Method 3 is usable with all four NDPs, but is also somewhat sensitive to large changes in the nucleotide composition of the assay medium and requires column separation at 4° C.

[2] = molecular target: T1, mammalian ribonucleotide reductase; conditions: cited from earlier work
E. coli RR = molecular target: T3, E. coli RR (Escherichia coli, UniProt P00452); conditions: cited from earlier work
T3 sequence (P00452 whole entry, looked up): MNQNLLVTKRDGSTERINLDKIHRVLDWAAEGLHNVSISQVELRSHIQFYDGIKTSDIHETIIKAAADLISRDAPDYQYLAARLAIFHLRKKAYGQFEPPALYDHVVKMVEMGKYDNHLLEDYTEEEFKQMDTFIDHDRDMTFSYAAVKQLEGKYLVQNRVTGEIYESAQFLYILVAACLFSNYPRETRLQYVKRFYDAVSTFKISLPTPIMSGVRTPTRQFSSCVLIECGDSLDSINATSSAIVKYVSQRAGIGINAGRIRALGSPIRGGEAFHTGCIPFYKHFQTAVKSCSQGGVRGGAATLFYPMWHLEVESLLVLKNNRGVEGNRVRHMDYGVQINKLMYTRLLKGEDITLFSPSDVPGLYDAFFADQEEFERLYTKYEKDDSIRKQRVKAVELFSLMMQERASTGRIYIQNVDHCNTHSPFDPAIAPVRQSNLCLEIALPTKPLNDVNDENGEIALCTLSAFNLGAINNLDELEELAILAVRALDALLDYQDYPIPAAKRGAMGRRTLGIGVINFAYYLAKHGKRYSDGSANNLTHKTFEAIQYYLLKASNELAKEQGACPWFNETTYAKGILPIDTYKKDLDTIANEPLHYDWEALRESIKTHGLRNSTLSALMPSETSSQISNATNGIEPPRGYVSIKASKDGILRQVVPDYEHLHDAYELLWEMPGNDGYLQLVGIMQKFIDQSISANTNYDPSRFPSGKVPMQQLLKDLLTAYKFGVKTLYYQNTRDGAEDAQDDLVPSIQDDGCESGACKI

mouse R1 = molecular target: T4, mouse R1 (Mus musculus, UniProt P07742); conditions: cited from earlier work
T4 construct: made in house; host or cells: R1: Hi5 or Sf9 insect cells (baculovirus); R2: E. coli
T4 sequence (P07742 1-792): T2 sequence (P07742 1-792)

[3] = Table 8, Dixon plots of 4-6 concentration points, ranges are two independent determinations, read-out: IC50

Molecule | Fold decrease in RI relative to N-AcFTLDADF ([1]; Table 8) | % RI (relative inhibitory potency, (IC50 AcFTLDADF)/(IC50 peptide analog)) ([1]; Table 8) | other results
FTLDADF [FTLDADF, Phe-Thr-Leu-Asp-Ala-Asp-Phe] | – | – | IC50 [1, 3]: > 400 µM
Acetyl-(p-azido-Phe)-Thr-Leu-Asp-Ala-Asp-Phe [Ac-F(4'-N3)TLDADF] | five to ten | 10% | –
SFTLDADF | – | – | IC50 [1, 3]: 80 µM
Ac-FTFDADF [Ac-FTFDADF] | – | 18 ± 4.2% | –
Ac-FTFNEDF [AcFTFNEDF] | – | – | IC50 ([1]; Table 9, read-out: IC50, Mammalian RR): 100 µM
DDLSNFQL [reference compound] | – | – | Inhibition of mRR [2]: does not inhibit mRR; Inhibition of E. coli RR (E. coli RR): inhibits eRR
Ac-FTADADF [Ac-FTADADF] | – | 4.9 ± 0.60% | –
Ac-LDADF [Ac-LDADF] | – | – | IC50 [1, 3]: > 400 µM
Ac-FTLDAEF [Ac-FTLDAEF] | > 50 fold | 1.7 ± 0.15% | –
Ac-FTLDADL [Ac-FTLDADL] | over 40 fold | 3% and < 3% | –

Further lines, with some results ahead:

Fold decrease in RI relative to N-AcFTLDADF ([1]; Table 8) | % RI (relative inhibitory potency, (IC50 AcFTLDADF)/(IC50 peptide analog)) ([1]; Table 8) | Molecule | other results
three to four | – | CC(=O)N[C@@H](Cc1ccccc1)C(=O)NC[C@@H]1O[C@@H]([C@@H](C)C(=O)N[C@@H](CC(=O)O)C(=O)N[C@@H](Cc2ccccc2)C(=O)O)[C@@H](OCC(=O)O)C[C@H]1OCC(C)C [Compound 23] | Residual Relative Activity (RR; 30 μM Compound 23): 86 ± 8 percentage; Residual Relative Activity (RR; 100 μM Compound 23): 73 ± 6 percentage; Residual Relative Activity (RR; 300 μM Compound 23): 64 ± 6 percentage; Residual Relative Activity (RR; 500 μM Compound 23): 48 ± 4 percentage; Residual Relative Activity (RR; 1000 μM Compound 23): 32 ± 6 percentage
five to ten | 7% | Ac-YTLDADF [Ac-YTLDADF] | Fold lower affinity for mR1 than AcFTLDADF (mouse R1): 15 fold
– | 100% | Ac-SFTLDADF | Affinity for mR1 compared with AcFTLDADF (mouse R1): same affinity
– | 35% | Ac-FTLDLDF [Ac-FTLDLDF] | –
